Source: patent publication US3932650A, “Trans-octahydropyridoindolobenzazepines as central nervous system depressants” (E. I. Du Pont de Nemours & Company, priority 1973, dated 1976)
Read-outs that look alike come from different tables or passages of the source.

Key:
[1] = system: eyelid closure (ptosis); experiment: Ptosis, rat; type: in vivo; details: rat, po; passive ptosis; read-out: Ptosis MED
Excerpt: Degree of eyelid closure is used as a measure of central nervous system depression. An animal is removed from its observation cage and allowed to remain outside the cage for 30 seconds. At the end of this time a rating of degree of eyelid closure is made on an arbitrary scale.

[2] = system: catalepsy; experiment: Catalepsy, mouse; type: in vivo; details: mouse, po; read-out: Catalepsy MED
Excerpt: (§1) The ability of an animal to remain in an abnormal position is used as another indication of central nervous system depressant activity. A test animal is removed from its observation cage and positioned so that its hind legs are on the table top and its front legs rest on the side of the observation cage. If an animal maintains this position for at least 10 seconds, it is considered to be showing cataleptic behavior.

[3] = system: catalepsy; experiment: Catalepsy, rat; type: in vivo; details: rat, po; read-out: Catalepsy MED
Excerpt: as §1

[4] = system: locomotor activity; experiment: Decreased Locomotor Activity (L.M.A.), rat; type: in vivo; details: po; minimal effective dose; read-out: L.M.A. MED
Experimental: (§2) Decreased Locomotor Activity (L.M.A.)
(§3) This reaction sign is measured subjectively by observing how an animal behaves when it is removed from an observation cage and placed on a table top. […] The degree of stimulation by the observer needed to produce active locomotion is rated on an arbitrary scale. This ranges from a score of -1 where only a slight touch of the animal's body is required to a -4 where the animal is unresponsive or minimally responsive to the application of a pain stimulus (pressure at the base of the tail). The minimal effective dose (MED) is the lowest oral dose producting an obvious decrease of locomotor activity (with a score of at least -1). Groups of 3 mice are given decreasing oral doses at 0.5 log intervals (300, 100, 30. . .etc.) until no behavioral effects are evident. Decrease of locomotor activity is indicative of general central nervous system depressant activity.

[5] = system: eyelid closure (ptosis); experiment: Ptosis, mouse; type: in vivo; details: mouse, po; passive ptosis; read-out: Ptosis MED
[6] = system: catalepsy; experiment: Catalepsy, comparison with chlorpromazine; type: in vivo; details: read-out: Catalepsy (*ED50?)
[7] = system: eyelid closure (ptosis); experiment: Ptosis, comparison with chlorpromazine; type: in vivo; details: read-out: Ptosis (*ED50?)
[8] = system: locomotor activity; experiment: LMA, comparison with chlorpromazine; type: in vivo; details: read-out: LMA (*ED50?)
[9] = system: phenyl-p-benzoquinone-induced writhing; experiment: Phenylquinone Writhing (P.Q.W.); type: in vivo, mouse; details: 0.5 h; mouse, po; phenyl-p-benzoquinone 2.5 mg/kg i.p. 30 minutes after compound; read-out: P.Q.W. ED50
[10] = system: locomotor activity; experiment: Decreased Locomotor Activity (L.M.A.), mouse; type: in vivo; details: mouse, po; minimal effective dose; read-out: L.M.A. MED
Experimental: as §2, §3

[11] = system: conditioned avoidance response; experiment: Dog Conditioned Avoidance Response (C.A.R.); type: in vivo; details: Canis lupus familiaris; dog, po; 5 or more incorrect responses in 50% of animals; 1, 2, and 4 hours; read-out: C.A.R. ED50
Experimental: Dog Conditioned Avoidance Response (C.A.R.):
Results given in: mg/kg po/dog
Dogs are trained to raise a forelimb when presented with a conditioned stimulus (light) in order to avoid an electric shock. Blocks of 10 trials are given to groups of 4 dogs during a pretreatment period and at 1, 2, and 4 hours after oral administration of the test compound. The ED50 values are calculated as the dose causing 50% of the animals to show 5 or more incorrect responses. Blocking of the C.A.R. at non-toxic doses appears to correlate with major tranquilizer activity in man.

[12] = system: taming; experiment: Rhesus Monkey Taming Effects; type: in vivo; details: Macaca mulatta; rhesus monkey, po; read-out: Taming MED
Experimental: Rhesus Monkey Taming Effects (Taming):
Results given in: mg/kg po/monkey
Compounds are administered orally to groups of 6 rhesus monkeys. The behavior of the animals is then evaluated by observational means. Taming effects are determined by the ability of the observer to approach and touch the monkey. Compounds with major tranquilizer activity in man can produce a state of passive tameness in the rhesus monkey wherein it can be touched without provoking any of the threatening or aggressive behavior seen in the normal animal. The MED is the minimal oral dose at which some taming effect can be observed.

[13] = system: TBZ-induced ptosis; experiment: Tetrabenazine Antagonism (T.B.Z.A.), mouse; type: in vivo; details: 1 h; mouse, po; TBZ 40 mg/kg s.c. one hour after compound; read-out: T.B.Z.A. ED50
Experimental: (§4) Tetrabenazine Antagonism (T.B.Z.A.)
(§5) The tetrabenazine (TBZ) antagonism test is used to test for potential antidepressant-like activity in rodents. One hour after oral administration of a test compound, a 40 mg/kg dose of TBZ is given subcutaneously. Thirty minutes after TBZ administration, the mice are placed in the center of a circle; the diameter of the circle is twice the body length of the mouse or rat. After 30 seconds, a reading is made of the degree of ptosis and whether the animal has moved out of the circle. Animals that have received only TBZ will show marked ptosis and immobility. Tricyclic antidepressants of the imipramine type will antagonize the ptosis but not the immobility. Antidepressants of the amphetamine or monoamine oxidase inhibitory type will antagonize both the ptosis and immobility induced by TBZ. The ED50 is the dose producing antagonism of TBZ-induced ptosis, but not of TBZ-induced immobility, in 50% of the animals.

[14] = system: conditioned avoidance response; experiment: Conditioned Avoidance Response (C.A.R.), rat; type: in vivo; details: rat, po; block of C.A.R. in 50% of animals; 1, 2, and 4 hours; read-out: C.A.R. ED50
Experimental: (§6) Mouse and Rat Conditioned Avoidance Response (C.A.R.):
(§7) Mice and rats are trained to jump out of a pit onto a ledge to avoid shock when presented with a light and sound conditioned stimulus. The animals are tested 1, 2, and 4 hours after administration of the test compound. Three to four dose levels and groups of 4-8 animals/dose are used. The ED50 is the dose producing a block of the C.A.R. in 50% of the animals. Blocking of the C.A.R. at non-toxic doses appears to correlate with major tranquilizer activity in man.

[15] = system: fear / feeding in approach-avoidance conflict; experiment: Rat Conflict (Approach-Avoidance) Test; type: in vivo; details: rat, po; after 1 or 2 hours; read-out: Conflict MED
Experimental: Rat Conflict (Approach-Avoidance) Test (Conflict)
Results given in: mg/kg po/rat
Food deprived rats are trained to pass from one compartment to an adjacent one to obtain food. The training consists of 3 exposures to the test situation on day one of the experiment. The rats are given limited (1-2 hr) free access to food in their home cages on day one and are then food deprived for at least 18 hours. On day two of the experiment, the rats are given a control exposure to the test situation followed by a second exposure after one-half to 1 hour in which they are shocked after crossing and eating. Groups of 6-8 rats are then dosed orally with solvent or test compound and then re-exposed to the test situation after 1 or 2 hours.
Compounds showing minor tranquilizer (anxiolytic) activity in man such as diazepam and meprobamate produce an apparent decreased fear in the test animals so that they cross to obtain food despite having received a shock earlier. This effect is dose-related (and the MED is the minimum dose at which this effect is obtained); rats dosed with solvent only consistently show a high level of fear as evidenced by decreased mobility and absence of feeding when placed in the test situation after receiving a shock.

[16] = system: TBZ-induced ptosis; experiment: Tetrabenazine Antagonism (T.B.Z.A.), rat; type: in vivo; details: 1 h; rat, po; TBZ 40 mg/kg s.c. one hour after compound; read-out: T.B.Z.A. ED50
Experimental: as §4, §5

[17] = system: conditioned avoidance response; experiment: Conditioned Avoidance Response (C.A.R.), mouse; type: in vivo; details: mouse, po; block of C.A.R. in 50% of animals; 1, 2, and 4 hours; read-out: C.A.R. ED50
Experimental: as §6, §7

Compound | minimal effective dose [1] [mg/kg] | minimal effective dose [2] [mg/kg] | minimal effective dose [3] [mg/kg] | minimal effective dose [4] [mg/kg] | minimal effective dose [5] [mg/kg] | ED50 ([6]; species not given) [mg/kg] | ED50 ([7]; species not given) [mg/kg] | ED50 ([8]; species not given) [mg/kg] | ED50 [9] [mg/kg] | minimal effective dose [10] [mg/kg] | ED50 [6] [mg/kg] | ED50 [7] [mg/kg] | ED50 [8] [mg/kg] | ED50 [11] [mg/kg] | minimal effective dose [12] [mg/kg] | ED50 [13] [mg/kg] | ED50 [14] [mg/kg] | minimal effective dose [15] [mg/kg] | ED50 [16] [mg/kg] | ED50 [17] [mg/kg]
CC(C)CN1CC[C@@H]2[C@@H](C1)c1cccc3c1N2c1ccccc1CC3 (relative stereo) [Example 5, trans-1,2,3,4,4a,8,9,14a-Octahydro-3-isobutylpyrido[4',3':2,3]indolo[1,7-ab][1]benzazepine] | 5 | 2 | 6 | 4 | 8 | 6 | 5 | 4 | 1.75 | 2 | – | – | – | – | – | – | – | – | – | –
CN(C)CCCN1c2ccccc2Sc2ccc(Cl)cc21 [Chlorpromazine] | – | – | – | – | – | – | – | – | – | – | 6 | 6 | 5 | – | – | – | – | – | – | –
c1ccc2c(c1)CCc1cccc3c1N2[C@@H]1CCN(CC2CC2)C[C@@H]31 (relative stereo) [Example 2, trans-3-(Cyclopropylmethyl)-1,2,3,4,4a,8,9,14a-octahydropyrido[4',3':2,3]indolo[1,7-ab][1]benzazepine] | 3 | 3 | 3 | 1 | 10 | – | – | – | 2.3 | 3 | – | – | – | 3 | 1 | > 100 | 0.7 | > 40 | > 100 | 0.7
